pEC50, pKd, pKi: −log10 of the molar value.

Assay [1] deals with T1, P2Y15 (Homo sapiens, UniProt Q96P68). The assay is described as follows: Calcium mobilization assay in presence of adenosine receptor antagonists. The format is cell-based. More on the design: expressed in transfected cells. To be noted: for block of calcium mobilization induced by AMP and adenosine: FIG. 4, dose-dependent. The procedure: (§1) Ligand screening was performed in a Ca^2+ flux assay as follows. Stably transfected P2Y15 GPCR-expressing cells were seeded into 96-well plates and incubated overnight at 37° C. in a tissue culture incubator. The culture medium was aspirated and replaced with […] of loading buffer containing 0.1% BSA, 20 mM HEPES, 1 mM probenecid, 0.01% pluronic F127, and 1 µM Fluo-3-AM (Molecular Probes, Eugene, Oreg.) in HBSS, and incubated for 1 hour at room temperature. The cells were then washed gently 3 times with wash buffer containing 0.1% BSA, 20 mM HEPES, 1 mM probenecid in HBSS. The washed cells were placed in an FDSS6000 functional drug screening system (Hamamatsu Photonics, Hamamatsu, Japan) and changes in cellular fluorescence were measured after adding serial dilutions of potential ligands. A panel of about 130 potential ligands was assembled by selecting known ligands of the GPCRs most closely related to P2Y15 GPCR as well as several naturally occurring chemical relatives of the ligands. The library included various bioactive lipids, eicosanoids, peptides, cannabinoids, chemokines, nucleosides, nucleotides and chemically related substances. The ligands were genereally purchased from either Sigma or R&D Systems.
(In general: Calcium assays in cells follow changes in intracellular calcium, usually with a dye or a luminescent sensor.)

For assay [2], the target named is T2, P2Y15 GPCR (Homo sapiens, UniProt Q96P68).
T2 construct: expressed in transfected cells
The assay is described as follows: Ca2+ flux assay (ligand screening) in stably transfected P2Y15 GPCR-expressing HEK293 cells. The following applies: FIG. 2A, read-out: calcium response EC50. Format: cell-based. As to the method: as §1

The subject of assay [3] is nontransfected HEK293 cells. The assay is described as follows: Cyclic AMP production assay in nontransfected HEK293 cells. The format is cell-based, human. The following applies: 10 μM forskolin. As to the method: (§2) The cells were then lysed and the cAMP produced was measured by a cAMP-specific ELISA. Concentrations of cAMP produced were calculated by comparing against cAMP standards measured simultaneously.

For assay [4], the target named is T1, P2Y15. The experiment in a line: Receptor binding assay (saturation binding) on P2Y15 stable transfectants. To be noted: whole cells, 4° C., 16 h; radiolabelled ligand. As to the method: 10^5 cells per well in 96-well plates were washed twice for 1 h with DMEM medium. […] After incubating at 4° C. for 16 h, the plates were centrifuged for 10 min at 1500 rpm and then scintillation measured on a TopCount automated scintillation counter. Binding of [^32P]-AMP was carried out under the same conditions except that instead of using SPA beads, at the end of the incubation, cells were washed three times by vacuum filtration and 100 μl scintillation fluid was added to the wells.

The subject of assay [5] is nontransfected HEK293 cells. The experiment in a line: Competitive binding assay on nontransfected HEK293 cells. More on the design: species or system human. To be noted: for antagonism of ^3H-AMP binding to nontransfected HEK293 cells: 10 μM ^3H-AMP. As to the method:
Competitive binding experiments were carried out as follows: 10^5 cells per well in 96-well plates were washed twice for 1 h with DMEM medium. Then wheatgerm agglutinin SPA beads (Amersham) at 1 mg/well were added, followed 1 h later by 10 μM [^3H]-Adenosine or 10 μM [^3H]-AMP (Amersham), and increasing concentrations of unlabeled ligand in a constant volume of HBS: 10 mM Hepes, 130 mM NaCl, 5 mM KCl, 1 mM MgCl2, 1 mM CaCl2 and 1 g/l glucose (6 μl/well)). After incubating at 4° C. for 16 h, the plates were centrifuged for 10 min at 1500 rpm and then scintillation measured on a TopCount automated scintillation counter. Ki values were determined by non-linear regression using the program Prism (Graph Pad).

The target of assay [6] is T1, P2Y15. The experiment in a line: Cyclic AMP production assay in P2Y15-HEK293 stable transfectants. The following applies: for effect of pertussis toxin pretreatment on cyclic AMP production in response to ligand: pretreatment two hours with 1 μM pertussis toxin; for cyclic AMP response to ligand alone: without forskolin. More on the design: expressed in transfected cells. Format: cell-based. The procedure: as §2

Assay [7] has as its target T1, P2Y15. The experiment in a line: Competitive binding assay on P2Y15 transfectants. To be noted: 10 μM ^3H-adenosine; FIG. 3D; read-out: Ki for blocking binding of ^3H-adenosine to transfectants. More on the design: expressed in transfected cells. The procedure: Competitive binding experiments were carried out as follows: 10^5 cells per well in 96-well plates were washed twice for 1 h with DMEM medium. […] After incubating at 4° C. for 16 h, the plates were centrifuged for 10 min at 1500 rpm and then scintillation measured on a TopCount automated scintillation counter. Ki values were determined by non-linear regression using the program Prism (Graph Pad).

Assay [8] deals with nontransfected HEK293 cells. The experiment in a line: Ca2+ flux assay in nontransfected HEK293 cells (control). The following applies: for calcium mobilization in response to nucleotide: both stable transfectants and nontransfected cells (endogenous P2Y1 and P2Y2). The format is cell-based, human.
Setting [9] is: 10 M AMP (FIG. 4A legend), read-out: Ki for blocking calcium mobilization induced by AMP.
The mark [10] stands for this setting: Ki for blocking calcium mobilization induced by adenosine, 10 M adenosine (FIG. 4B legend).

With `Nc1ncnc2c1ncn2[C@@H]1O[C@H](COP(=O)(O)CP(=O)(O)O)[C@@H](O)[C@H]1O` [AMP-CP, Adenosine 5′-(α,β-methylene)diphosphate], in assay [1], the “block of calcium mobilization induced by AMP and adenosine” value (“block of calcium mobilization induced” below) is listed as “effective in blocking”.

For `Nc1ncnc2c1ncn2[C@@H]1O[C@H](COP(=O)(O)O)[C@@H](O)[C@H]1O` [AMP, Adenosine 5′-monophosphate], in assay [2], the pEC50 was 6.04. Moreover, the “cyclic AMP generation in nontransfected HEK293 cells” value in assay [3] is on record as “did not respond strongly”. In addition, in assay [4], the negative-log Kd (pKd) (commonly −log10 of the Kd, conventionally taken in molar units) is 4.73. Moreover, in assay [5], the “antagonism of ^3H-AMP binding to nontransfected HEK293 cells” value is reported as “neither AMP nor adenosine can antagonize”. Besides, the “blocking ^3H-adenosine binding to nontransfected HEK293 cells” value in assay [5] (10 μM ^3H-adenosine, FIG. 3D) is given as “little effect”. For the same molecule, the pEC50 in assay [6] (in the presence of 10 μM forskolin, 30 min, FIG. 2B, read-out: generation of cyclic AMP EC50) is 6.67. In assay [6], the “effect of pertussis toxin pretreatment on cyclic AMP production in response to ligand” value was “not affected” and the “cyclic AMP response to ligand alone” value is recorded as “only minor responses barely above the detection limit”. Besides, the negative-log Ki (pKi) (in general, −log10 of the Ki, conventionally taken in molar units) in assay [7] is 4.61.

Take `Nc1ncnc2c1ncn2[C@@H]1O[C@H](COP(=O)(O)OP(=O)(O)OP(=O)(O)O)[C@@H](O)[C@H]1O` [ATP]: the “calcium mobilization in response to nucleotide” value in assay [8] is reported as “mobilized calcium”.

With `Cn1c(=O)c2c(ncn2C)n(C)c1=O` [caffeine], the negative logarithm of the Ki (pKi) in assay [1] (setting [9]) was 5.57; in assay [1] (setting [10]) it was 4.58.

As for `Nc1ncnc2c1ncn2[C@@H]1O[C@H](CO)[C@@H](O)[C@H]1O` [adenosine], the “calcium mobilization response to adenosine in nontransfected cells” value in assay [8] (nontransfected HEK293, detected only at very high adenosine concentrations) is on record as “very weak response”. Moreover, the “cyclic AMP generation in nontransfected HEK293 cells” value in assay [3] is “generated cyclic AMP”. Also, the “antagonism of ^3H-AMP binding to nontransfected HEK293 cells” value in assay [5] is reported as “neither AMP nor adenosine can antagonize”. Also, in assay [6], the “effect of pertussis toxin pretreatment on cyclic AMP production in response to ligand” value is “not affected” and the “cyclic AMP response to ligand alone” value is listed as “only minor responses barely above the detection limit”.

`Cn1c(=O)c2[nH]cnc2n(C)c1=O` [theophylline]: in assay [1], the “block of calcium mobilization induced” value is “able to block”.

For the molecule `CC(C)Cn1c(=O)n(C)c(=O)c2[nH]cnc21` [IBMX, 3-isobutyl-1 methylxanthine], in assay [1], the “block of calcium mobilization induced” value was “able to block”.

Consider `Cn1c(=O)c2[nH]c(-c3ccccc3)nc2n(C)c1=O` [8-phenyltheophylline, 8-Phenyltheophylline], for which the figures for the pKi in assay [1] (setting [9]) and in assay [1] (setting [10]) were 6.60 and 6.59, respectively.

Consider `O=c1ccn([C@@H]2O[C@H](COP(=O)(O)OP(=O)(O)OP(=O)(O)O)[C@@H](O)[C@H]2O)c(=O)[nH]1` [UTP], for which, in assay [8], the “calcium mobilization in response to nucleotide” value was “mobilized calcium”.

Values taken from patent US20060240424A1, “Regulation of human p2y15 g protein-coupled receptor” (priority 2002, published 2006).
